Among the test systems are 380; SUP-B15; P12-ICHIKAWA
What all share (assay): selective drug sensitivity score (sDSS, relative to normal bone marrow) (sDSS (score)); higher = more potent and effective on the cell line relative to normal bone marrow cells
Common to all, as to details: 72 h

Structures are written as SMILES.
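Further: ALL cell lines in 384-well plates, five doses spanning 10,000-fold, each plate scaled between vehicle and 100 µmol/L benzalkonium chloride controls, sDSS an adapted area-under-curve metric.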

Regarding `Cn1ncnc1[C@H]1c2n[nH]c(=O)c3cc(F)cc(c23)N[C@@H]1c1ccc(F)cc1` [Talazoparib] (top concentration 1000 nM), the “selective drug sensitivity score” value with 380 is 21.4; with SUP-B15, 20.1; in the experiment with P12-ICHIKAWA it was -0.52.

Consider `COc1nc(N)nc2c1ncn2[C@@H]1O[C@H](CO)[C@@H](O)[C@@H]1O` [Nelarabine] (top concentration 10000 nM), for which the “selective drug sensitivity score” value in the experiment on 380 is -6.32; in the experiment with SUP-B15 it was 5.78; in the experiment with P12-ICHIKAWA, 4.68.

`O=C(c1cccc(Cl)c1F)N1CCN(Cc2cccc(Nc3nccs3)n2)CC1` [MK-8745] (top concentration 10000 nM): the “selective drug sensitivity score” value in the experiment on 380 is 18.3; with SUP-B15, 18.3; in the experiment with P12-ICHIKAWA, 11.3.

Take `CC(=O)c1cnc2ccc(-c3cc(Cl)c(O)c(Cl)c3)nc2c1N[C@H]1CC[C@H](CN(C)C)CC1` [OTS167] (top concentration 1000 nM): the “selective drug sensitivity score” value in the experiment on 380 was 9.38; with SUP-B15 it was 2.98; in the experiment on P12-ICHIKAWA, -3.32.

With `Nc1cc(F)ccc1NC(=O)/C=C/c1cnn(C/C=C/c2ccccc2)c1` [RGFP966] (top concentration 10000 nM), the “selective drug sensitivity score” value turned out to be 12.9 in the experiment on 380, 18 in the experiment on SUP-B15 and 17.8 with P12-ICHIKAWA.

Take `Cc1[nH]c2ccccc2c1CCNCc1ccc(/C=C/C(=O)NO)cc1` [Panobinostat] (top concentration 1000 nM): the “selective drug sensitivity score” value came to 12.1 with 380, 10.2 in the experiment with SUP-B15 and 4.14 in the experiment with P12-ICHIKAWA.

With `O=C(CCCCCCC(=O)Nc1ccccc1)NO` [Vorinostat] (top concentration 10000 nM), the “selective drug sensitivity score” value amounted to 8.8 in the experiment on 380, 11.9 in the experiment on SUP-B15 and 6.6 in the experiment with P12-ICHIKAWA.

`Nc1nc2[nH]cnc2c(=S)[nH]1` [Thioguanine] (top concentration 10000 nM): the “selective drug sensitivity score” value worked out at 6.04 in the experiment with 380, 19.2 with SUP-B15 and 13.6 in the experiment with P12-ICHIKAWA.

`Cc1ccc(NC(=O)c2ccc(CN3CCN(C)CC3)cc2)cc1Nc1nc(-c2cccnc2)cs1` [Masitinib] (top concentration 10000 nM): the “selective drug sensitivity score” value with 380 is -4.38; in the experiment on SUP-B15 it was 7.52; in the experiment with P12-ICHIKAWA, 0.32.

With `COc1ccc2[nH]cc(/C=C3\C(=O)Nc4ccc(NC(=O)CCN5CCCCC5)cc43)c2c1` (top concentration 50000 nM), the “selective drug sensitivity score” value with 380 was -4.62; in the experiment on SUP-B15, 2.48; with P12-ICHIKAWA, -0.52.

The values are drawn from the supplement of paper PMC8967900.
